Assay results taken from patent US7232800B2, “Derivatives of magainin and methods of production thereof” (priority 2001, dated 2007).
Like-named read-outs stand apart in the source and are kept apart here. Where no end group is shown, it is not given here.

Experiments:
[1] = test system: Escherichia coli JM103; assay type: cell-based
Description: The anti-microbial effect of the Magainin(Leu21, Ser23, Arg24) was conducted according to the following procedures, with the comparison of that of the naturally occurring Magainin.
The bacterial strain of Escherichia coli JM103 and staphylococcus aureus were employed.
The bacteria were cultivated at 37° centigrade, and diluted to 1×10^6 bacteria/ml. 20 mM of the sterilized Tris-HCl buffer (pH6.5) was added. Then the Magainin derivative and the naturally occurring Magainin II with various concentrations were added respectively, and incubated at 37° centigrade for different time, 50 μl of the cultures was taken and spread on an agar plate, and incubated at 37° centigrade overnight. The remaining bacteria colonies were accounted for, and the percent of the killed bacteria was calculated.
The ant-microbial effects of Magainin (Leu21, Ser23, Arg24) were tested with comparison with that of the naturally occurring Magainin II. […] The anti-microbial effect of Magainin (Leu21, Ser23, Arg24) on Staphylococcus aureus can be seen from table 4, and the result of time-kill study of Magainin (Leu21, Ser23, Arg24) was shown in FIG. 1.

[2] = test system: mice of Kun-ming species; test: Acute toxicity test; assay type: in vivo; conditions: one week observation; for Livability: mice
Description: Six mice of Kun-ming species were divided into three groups randomly. Mice in the first group were intraperitoneally injected with 100 μg Magainin (Leu21, Ser23, Arg24) which is prepared by the method described in example 1, Mice in the second group were injected with 200 μg Magainin (Leu21, Ser23, Arg24), while those in the third group were injected with 1000 μg Magainin (Leu21, Ser23, Arg24). The toxicity of Magainin (Leu21, Ser23, Arg24) was determined by observing the influence of injection to the survival of the mice.

[3] = test system: erythrocytes (blood derived from SD rat); test: Hemolysis test; assay type: cell-based
Description: 3 ml of 0.9% sodium chloride solution was added into three tubes separately, followed by addition of 100 μl blood derived from SD rat (provided by Shanghai Laboratory Animal Center, Chinese Academic Sciences) respectively.
As a negative control, the naturally occurring Magainin peptide (obtained from Sigma) was dissolved in sterile water, and the Magainin peptide solution with a concentration of 1 mg/ml was prepared. 300 μl, 1.5 ml and 3 ml of such solution were added into three tubes respectively. After incubation at room temperature for 30 minutes, centrifugation was conducted at 3000 rpm, and supernates in three tubes was taken to determine the optical density at 590 nm with a spectrophotometer.
In the testing group, Hemolysis effect of the Magainin (Leu21, Ser23, Arg24) was examined. Magainin (Leu21, Ser23, Arg24) peptide was dissolved in sterile water to prepare the solution with a concentration of 1 mg/ml, 300 μl, 1.5 ml and 3 m of the solution were added into three tubes respectively, and the hemolysis test was conducted using the same method as applied to the negative control group.
In the positive control group, 0.1% of Triton X-100 (obtained from Sigma Aldrich) was employed aid the hemolysis test was performed according to the steps prescribed above.
In this test, erythrocyte will be precipitated after centrifigation and supernate appear red in the circumstance hemolysis has occurred.

Substance	Bacteria killed % ([1]; 10 μg/ml, 3 hr) [%]	Bacteria killed % ([1]; 10 μg/ml, 4 hr) [%]	Bacteria killed % ([1]; 20 μg/ml, 3 hr) [%]	Bacteria killed % ([1]; 20 μg/ml, 4 hr) [%]	Livability ([2]; 100 μg intraperitoneal injection) [%]	Livability ([2]; 200 μg intraperitoneal injection) [%]	Livability ([2]; 1000 μg intraperitoneal injection) [%]	survival of the mice (in words) ([2]; 100, 200 and 1000 μg intraperitoneal)	Hemolysis % ([3]; 100 μg/ml, 30 minutes room temperature) [%]	Hemolysis % ([3]; 500 μg/ml, 30 minutes room temperature) [%]	Hemolysis % ([3]; 1000 μg/ml, 30 minutes room temperature) [%]	Hemolysis % ([3]; 0.1%, positive control) [%]
GIGKFLHSAKKFGKAFVGEILNSR [Magainin (Leu21, Ser23, Arg24)]	71.3	44.2	97.8	99.1	100	100	100	all survived				
GIGKFLHSAKKFGKAFVGEIMNS [Naturally occurring Magainin, Magainin II]	75.4	84.9	97.5	99.2					0	0	1.9	
Triton X-100 [Tritonx-100]												100
